These results are taken from US20230096028A1, “BICYCLIC HETEROCYCLYL COMPOUNDS AND USES THEREOF” (Revolution Medicines, Inc., priority 2019, published 2023).

Counter-ions that a name gives are not always drawn. Like-named read-outs stand apart in the source and are kept apart here.

Assay [1] has as its target T1, SOS1 catalytic domain (residues 564-1049) (Homo sapiens, UniProt Q07889).
T1 sequence (Q07889 564-1049): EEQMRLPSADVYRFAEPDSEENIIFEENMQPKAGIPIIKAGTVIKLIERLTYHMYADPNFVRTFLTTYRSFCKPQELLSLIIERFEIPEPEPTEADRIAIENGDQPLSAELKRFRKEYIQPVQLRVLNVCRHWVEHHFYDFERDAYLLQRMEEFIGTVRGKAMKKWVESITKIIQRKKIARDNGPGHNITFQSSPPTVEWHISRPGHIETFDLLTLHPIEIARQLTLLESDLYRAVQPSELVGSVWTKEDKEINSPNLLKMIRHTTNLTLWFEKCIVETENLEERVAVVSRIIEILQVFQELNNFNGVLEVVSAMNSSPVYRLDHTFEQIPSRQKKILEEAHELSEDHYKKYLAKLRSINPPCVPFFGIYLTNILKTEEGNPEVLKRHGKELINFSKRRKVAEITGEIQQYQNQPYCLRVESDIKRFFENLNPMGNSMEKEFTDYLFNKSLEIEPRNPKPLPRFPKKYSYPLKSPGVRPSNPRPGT
The assay is described as follows: Potency Assay: binding affinity to SOS1 using Surface Plasmon Resonance (SPR). Also on record: SOS1 catalytic domain (residues 564-1049) immobilized on a sensor chip. As to conditions: immobilized SOS1 catalytic domain (residues 564-1049), read-out: SOS1 SPR Equilibrium Kd. As for the experimental part:
Data was reported as equilibrium dissociation constant (Kd) values.
Using a GE Biacore 8K SPR instrument, avi-tagged SOS1 catalytic domain protein was immobilized to a level of approximately 6000 response units (RU) on a streptavidin-coated SPR sensor chip in assay buffer containing 0.01 M HEPES, 0.15 M NaCl and 0.05% v/v Surfactant P20. […] For each test compound, a separate 0 μM sample was generated for use during subsequent double reference subtraction. Serially for each test compound, individual dilution samples were flowed over the immobilized SOS1 protein at a flow rate of 50 μL/minute to monitor the association with SOS1. Dissociation of bound test compound from the SOS1 protein was immediately monitored by flowing assay buffer over the sensor surface and monitoring the decrease in binding signal back to the baseline level seen in the absence of compound. This was repeated for all compound dilutions in each series. The binding level response for each test compound concentration was noted immediately prior to the end of the association phase, and a secondary plot generated showing binding response level versus test compound concentration generated for each compound dilution series.

Assay [2] concerns the target T1, SOS1 catalytic domain (residues 564-1049). The assay is described as follows: Mode of Action Assay: inhibition of SOS1 nucleotide exchange activity (SOS1 TR-FRET IC50 Assay).
In assay [3] the test system is PC-9 cells (EGFR Ex19Del). In words: Potency Assay: pERK (SOS1 pERK IC50 Assay, AlphaLISA SureFire Ultra p-ERK1/2). It counts as cell-based. As to conditions: Homo sapiens, read-out: SOS1 pERK IC50. In a few lines: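 Cellular pERK1/2 by AlphaLISA SureFire Ultra after 1 h compound exposure (37° C., highest concentration 10 μM, 3-fold steps, duplicates) of EGFR Ex19Del PC-9 cells seeded the day before. A 4-parameter fit of signal versus log concentration gives IC50.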
In general terms: Bead proximity is the source of the signal in Alpha formats.

Where [4] appears, read: PC-9 cells (EGFR Ex19Del), 1 hour incubation, AlphaLISA p-ERK1/2.

As to `C[C@@H](Nc1nc(Cl)nc2c1CN(C(=O)N1CC[C@H](O)C1)C2)c1cc(N)cc(C(F)(F)F)c1` [Example 161], the Kd in assay [1] was less than 400 nM.

Regarding `C[C@@H](Nc1nccc2nc(C(=O)N3CCNCC3)cn12)c1cccc(C(F)F)c1F` [Example 530, [5-[[(1R)-1-[3-(difluoromethyl)-2-fluoro-phenyl]ethyl]amino]imidazo[1,2-c]pyrimidin-2-yl]-piperazin-1-yl-methanone hydrochloride], in assay [1], the Kd was less than 400 nM. Still for that read-out and setting: as for `C[C@@H](Nc1nc(Cl)nc2c1CN(S(=O)(=O)N1CC(C#N)C1)C2)c1cc(N)cc(C(F)(F)F)c1` [Example 26], the figure is greater than 400 nM; as for `C[C@@H](Nc1nc(Cl)nc2c1CN(C(=O)N1CC3(CCCO3)C1)C2)c1cc(N)cc(C(F)(F)F)c1` [Example 156], less than 400 nM.

As for `COC(=O)N1Cc2nc(C)nc(N[C@H](C)c3cc(N)cc(C(F)(F)F)c3)c2C1` [Example 117, methyl 4-{[(1R)-1-[3-amino-5-(trifluoromethyl)phenyl]ethyl]amino}-2-methyl-5H,6H,7H-pyrrolo[3,4-d]pyrimidine-6-carboxylate], the Kd in assay [1] was greater than 400 nM. For the molecule `C[C@@H](Nc1nc(Cl)nc2c1CN(S(=O)(=O)N1CCNCC1)C2)c1cc(N)cc(C(F)(F)F)c1` [Example 28], the dissociation constant (Kd) in assay [1] is less than 400 nM. On the same count and under the same terms, as for `C[C@@H](Nc1nc(Cl)nc2c1CN(C(=O)N1CCC(O)CC1)C2)c1cc(N)cc(C(F)(F)F)c1` [Example 155], the figure is less than 400 nM; as for `C[C@@H](Nc1nc(Cl)nc2c1CN(C(=O)N1CCC(C)(N)CC1)C2)c1cc(N)cc(C(F)(F)F)c1` [Example 157], less than 400 nM. Still for that read-out and setting: for `C[C@@H](Nc1nc(Cl)nc2c1CN(C(=O)N1C3CCC1COC3)C2)c1cc(N)cc(C(F)(F)F)c1` [Example 158] the value was less than 400 nM; for `C[C@@H](Nc1nc(Cl)nc2c1CN(C(=O)N1CC3CCC(C1)O3)C2)c1cc(N)cc(C(F)(F)F)c1` [Example 153], less than 400 nM. With `C[C@@H](Nc1nc(Cl)nc2c1CN(C(=O)C1CC(=O)N(c3ccc4c(c3)OCO4)C1)C2)c1cc(N)cc(C(F)(F)F)c1` (stereo partly drawn) [Example 106], in assay [1], the dissociation constant Kd was less than 400 nM. Turning to `C[C@@H]1COC[C@H](C)N1C(=O)N1Cc2nc(Cl)nc(N[C@H](C)c3cc(N)cc(C(F)(F)F)c3)c2C1` [Example 164], the Kd in assay [1] is less than 400 nM. Take `C[C@@H](Nc1nc(Cl)nc2c1CN(C(=O)C1CC3(CCNCC3)C1)C2)c1cc(N)cc(C(F)(F)F)c1` [Example 79]: the dissociation constant Kd in assay [1] was less than 400 nM.

As for `C[C@@H](Nc1nc(CNC2COC2)nc2c1CN(C(=O)N1CCOCC1)C2)c1cccc(C(F)F)c1F` [Example 509, N-[(1R)-1-[3-(difluoromethyl)-2-fluorophenyl]ethyl]-6-(morpholine-4-carbonyl)-2-{[(oxetan-3-yl)amino]methyl}-5H,6H,7H-pyrrolo-[3,4-d]pyrimidin-4-amine], the IC50 in assay [2] is less than 1000 nM; in assay [3] (setting [4]), greater than 1000 nM. Regarding `CNCc1nc2c(c(N[C@H](C)c3cc(N)cc(C(F)(F)F)c3)n1)CN(C(=O)N1CCOCC1)C2` [Example 503, N-[(1R)-1-[3-amino-5-(trifluoro-methyl)phenyl]ethyl]-2-[(methylamino)methyl]-6-(morpholine-4-carbonyl)-5H,6H,7H-pyrrolo[3,4-d]-pyrimidin-4-amine], the concentration for half-maximal inhibition (IC50) in assay [2] was less than 1000 nM; in assay [3] (setting [4]), greater than 1000 nM. For `C[C@@H](Nc1nc(Cl)nc2c1CN(C(=O)C13COC(CCO1)C3)CC2)c1cc(N)cc(C(F)(F)F)c1` (stereo partly drawn) [Example 220] the same measures were greater than 1000 nM and greater than 1000 nM. For `CC(Nc1nc(Cl)nc2c1CN(C(=O)N1CCOCC1)C2)c1cc(N)c(F)c(C(F)(F)F)c1` (stereo not drawn) [Example 533, [4-[1-[3-amino-4-fluoro-5-(trifluoromethyl)phenyl]ethylamino]-2-chloro-5,7-dihydropyrrolo[3,4-d]pyrimidin-6-yl]-morpholino-methanone] the same measures were greater than 1000 nM and less than 1000 nM. Taken in the same sequence, the figures for `C[C@@H](Nc1ncnc2c1CN(C1CCOCC1)C(=O)N2C)c1cc(N)cc(C(F)(F)F)c1` [Example 176, (R)-5-((1-(3-amino-5-(trifluoromethyl)phenyl)ethyl)amino)-1-methyl-3-(tetrahydro-2H-pyran-4-yl)-3,4-dihydropyrimido[4,5-d]pyrimidin-2(1H)-one] were less than 1000 nM and less than 1000 nM. In the case of `Cc1nc2c(c(N[C@H](C)c3cc(N)cc(C(F)(F)F)c3)n1)CN(CC1CCOC1)CC2` (stereo partly drawn) [Example 56, N-[(1R)-1-[3-amino-5-(trifluoromethyl)phenyl]ethyl]-2-methyl-6-(tetrahydrofuran-3-ylmethyl)-7,8-dihydro-5H-pyrido[4,3-d]pyrimidin-4-amine], the results for the IC50 in assay [2] and in assay [3] (setting [4]) were less than 1000 nM and greater than 1000 nM, respectively. As to `Cc1nc2c(c(N[C@H](C)c3cc(N)cc(C(F)(F)F)c3)n1)CN(C(=O)C1CCN(C)CC1)C2` [Example 109, [4-[[(1R)-1-[3-amino-5-(trifluoromethyl)phenyl]ethyl]amino]-2-methyl-5,7-dihydropyrrolo[3,4-d]pyrimidin-6-yl]-(1-methyl-4-piperidyl)methanone], the IC50 in assay [2] is less than 1000 nM; in assay [3] (PC-9, 1 h), greater than 1000 nM.

With `CO[C@H]1C[C@H](C(=O)N2CCc3nc(Cl)nc(N[C@H](C)c4cc(N)cc(C(F)(F)F)c4)c3C2)C1` [Example 190], the IC50 in assay [2] and in assay [3] (setting [4]) was greater than 1000 nM in each case.

`C[C@@H](Nc1nc(O)nc2c1CN(C(=O)N1CCOCC1)C2)c1cc(N)cc(C(F)(F)F)c1` [Example 55]: the results for the IC50 in assay [2] and in assay [3] (setting [4]) were less than 1000 nM and greater than 1000 nM, respectively. Taken in the same sequence, the figures for `C[C@@H](Nc1nc(Cl)nc2c1CN(C(=O)C1CC13CCOCC3)CC2)c1cc(N)cc(C(F)(F)F)c1` (stereo partly drawn) [Example 197] were greater than 1000 nM and greater than 1000 nM. Taken in the same sequence, the figures for `C[C@@H](Nc1nc(Cl)nc2c1CN(C(=O)N1CCOCC1)C2)c1cccc(C(F)(F)OC2CC2)c1` [Example 524, 2-chloro-N-[(1R)-1-[3-(cyclopropoxydifluoromethyl)phenyl]ethyl]-6-(morpholine-4-carbonyl)-5H,6H,7H-pyrrolo[3,4-d]pyrimidin-4-amine] were less than 1000 nM and greater than 1000 nM. As to `CC(Nc1nc(Cl)nc2c1CN(C(=O)N1CCOCC1)C2)c1cccc(S(N)(=O)=O)c1` (stereo not drawn) [Example 535, 3-[1-[[2-chloro-6-(morpholine-4-carbonyl)-5,7-dihydropyrrolo[3,4-d]pyrimidin-4-yl]amino]ethyl]benzenesulfonamide], the IC50 was greater than 1000 nM in assay [2] and greater than 1000 nM in assay [3] (PC-9, 1 h).

As for `CC(C)OC1(C(=O)N2CCc3nc(Cl)nc(N[C@H](C)c4cc(N)cc(C(F)(F)F)c4)c3C2)CCOC1` (stereo partly drawn) [Example 195], the IC50 in assay [2] and in assay [3] (setting [4]) was greater than 1000 nM in each case. In the case of `C[C@@H](Nc1nc(Cl)nc2c1CN(C(=O)C1(O)CCOCC1)CC2)c1cc(N)cc(C(F)(F)F)c1` [Example 189], the IC50 in assay [2] and in assay [3] (setting [4]) was greater than 1000 nM throughout. Turning to `Cc1nc2c(c(N[C@H](C)c3cc(N)cc(C(F)(F)F)c3)n1)CN(CC1CCOC1)C2` (stereo partly drawn) [Example 111, N-[(1R)-1-[3-amino-5-(trifluoromethyl)phenyl]ethyl]-2-methyl-6-(tetrahydrofuran-3-ylmethyl)-5,7-dihydropyrrolo[3,4-d]pyrimidin-4-amine], the half-inhibitory concentration (IC50) in assay [2] and in assay [3] (setting [4]) was greater than 1000 nM each time. `COC1(C(=O)N2Cc3nc(Cl)nc(N[C@H](C)c4cccc(C(F)(F)CO)c4)c3C2)CN(C2COC2)C1` [Example 267]: the half-maximal inhibitory concentration (IC50) in assay [2] and in assay [3] (setting [4]) was less than 1000 nM each time.

For orientation: Kd means the concentration at which binding is half-saturated. What is called IC50 is the concentration that inhibits the measured activity by half.
